Results on 15 substances are retold here after patent publication US20120070493A1, “TARGETED MULTI-EPITOPE DOSAGE FORMS FOR INDUCTION OF AN IMMUNE RESPONSE TO ANTIGENS” (Selecta Biosciences, Inc., priority 2010, published 2012).

Experiment [1] concerns CD4+/CD45RAlow/CD62Lhigh central memory T-cells (human PBMC). In kind it is cell-based. The note with it: for memory T-cell recall response, influenza epitopes: 5 PBMC donors, FIG. 14; for response of individual peptides and of heterodimeric peptides lacking a cathepsin cleavage site, compared with the response to this peptide: 4 donors, the comparators were the weaker ones, not the labelled peptide.

The test system of experiment [2] is MHC Class II (HLADP, HLADQ and HLADR alleles). The conditions noted are these: previously described peptide, Virology 326 (2004) 220-230; cited from earlier work.
For experiment [3], the system named is CD4+/CD45RAlow/CD62Lhigh central memory T-cells. Description: dendritic cell/CD4 T-cell co-culture, multi-color intracellular cytokine analysis. Type of experiment: cell-based, human. The conditions noted are these: for IFN-γ expression in peptide specific central memory T-cells / IL-4 expression in peptide specific central memory T-cells / TNF-α expression in peptide specific central memory T-cells: DC/CD4 co-culture with or without peptide, FIGS. 7 and 8; for co-expression of TNF-α and IFN-γ / co-expression of TNF-α and IL-4: multiple color flow cytometry, FIG. 9. On the procedure: Early central memory T-cells express multiple cytokines (IL-2, TNF-α, IFN-γ) when re-activated with specific peptides, whereas committed effector memory T-cells are thought to selectively express IL-4 for TH2 committed effector memory, and IFN-γ for TH1 committed effector memory. The status of peptide activated memory T-cells was tested using multi-color intracellular cytokine analysis of dendritic cell/CD4 cell co-cultures.
Human peripheral blood monocytes were isolated using negative-selection magnetic beads (Dynal) and cultured in the presence of GM-CSF and IL-4 for 1 week in order to induce differentiation into dendritic cells. Allogeneic CD4 T cells were isolated using magnetic bead separation (Dynal) and co-cultured in the presence of DCs in the presence or absence of peptide. The protocol for stimulation and analysis from that point is identical to that for PBMC described above in Example 2.
(In general: A flow cytometer gives signals particle by particle.)

Another experiment has as its system human PBMC. Description: interferon gamma Elispot, peptide-stimulated PBMC. In kind it is cell-based. The conditions noted are these: 10 μM peptide; for memory T-cell response (IFN-γ Elispot spots, normalized to non-stimulated controls): 18 hours, 5 donors, FIG. 22; for number of donors showing a recall: out of 5 donors. As to the method: The potency of single epitopes and chimeric epitopes have been evaluated by stimulating human PBMC with peptides in vitro for 18 hours and then analyzing the cells by Elispot. Briefly, whole blood was obtained from Research Blood Components (Cambridge). Blood was diluted in phosphate buffered saline (PBS) and then overlaid on top of Ficoll-paque premium (GE Healthcare) in a 50 mL tube. Tubes were spun for 30 minutes, and the transition phase PBMCs collected, diluted in PBS with 10% fetal calf serum (FCS) and spun for 10 minutes. Cells were resuspended in cell freezing media (Sigma) and immediately frozen at −80 C overnight. For long term storage, cells were transferred to liquid nitrogen. Cells were thawed as needed and resuspended in PBS 10% FCS, spun down and resuspended to 1×10^7 cells/mL in culture media (RPMI [cellgro]), supplemented with 10% heat inactivated fetal calf serum (Sigma) l-glutamine, penicillin and streptomycin).
The Elispot assay was performed using an interferon gamma Elispot kit (Mabtech). Briefly the Elispot was performed by coating 96 well filter plates with an IFN-γ capture antibody, then blocked with complete culture media containing 10% FCS to prevent non-specific binding. PBMC (1×10^6 cells) were plated in the antibody pre-coated Elispot plates with or without 10 μM peptide. Positive control wells were stimulated with 10 μg/mL PHA. Elispot plates were incubated for 18 hours at 37° C. followed by coating with biotinylated anti-IFN-γ secondary antibody for 2 hours at room temperature. Elispot plates were then washed and IFN-γ spots developed using 3-amino-9-ethylcarbazole, dimethylformamide, and hydrogen peroxide in acetate buffer. IFN-γ positive Elispot counts were evaluated by an outside vendor (Zelnet) and the number of spots scored per 10 million cells.

Square brackets hold non-standard residues; d marks the D form. Ends that are not written are not given here.

Take “CSQRSKFLLMDALKLkvsvrLIFLARSALILR [AAWkAAT]”: the “memory T-cell recall response, influenza epitopes” value (shortened to “memory T-cell recall response”) in experiment [1] (4 μM peptide) was “positive”.

Consider DFHFEVFNFVPCSI [RSVG162-175], for which the “Affinity (HLA Class II type bound)” value in experiment [2] is given as “(HLADP)”.

For EKIVLLFAIVSLVKSDQICI [ABW9], the “memory T-cell recall response” value in experiment [1] (4 μM peptide) is recorded as “not”.

In the case of “ILMQYIKANSKFIGI QSIALSSLMVAQTLLYVLFEV (ILMQYIKANSKFIGIQSIALSSLMVAQTLLYVLFEV) [TT830DTAdV]”, in experiment [1], the “number of donors showing a recall response” value worked out at 4 donors. For “ILMQYIKANSKFIGIPMGLPQSIALSSLMVAQ [TT830pmglpDTt]”, in experiment [1] (human PBMC, 4 μM peptide), the “effect of inclusion of a cathepsin cleavage site on the response, compared with TT830DTt” value is recorded as “enhanced the response”; the “recall activity compared with identical peptide without cleavage site (TT830DT)” value is listed as “better than a peptide identical except without a cleavage site (TT830DT)”; the “recall activity compared with individual components TT830 and DT alone” value was “more active than its individual components (TT830 and DT) alone”. In addition, the “number of activated central memory T-cells (percent CD62L+/IFN-γ+ cells, normalized to non-stimulated)” value in experiment [1] (human PBMC, 4 μM peptide, 20 donors, FIG. 5) is given as “highest response”. Also, the “number of donors positive for memory T-cells responding to peptide” value in experiment [1] (out of 20 donors, positive if greater than 0.08% responding central memory T-cells, FIG. 6) is on record as 20/20. For the same substance, in experiment [3], the “IFN-γ expression in peptide specific central memory T-cells” value is “increased expression”; the “IL-4 expression in peptide specific central memory T-cells” value is “not IL-4”; the “TNF-α expression in peptide specific central memory T-cells” value is given as “increased expression”; the “co-expression of TNF-α and IFN-γ” value is on record as “peptide induced co-expression”. Further, the “co-expression of TNF-α and IL-4” value in experiment [3] was “not co-expression”. For ILMQYIKANSKFIGIQSIALSSLMVAQ [TT830DTt], in experiment [3], the “co-expression of TNF-α and IFN-γ” value is on record as “peptide induced co-expression”; the “co-expression of TNF-α and IL-4” value is recorded as “not co-expression”. Take “ILMQYIKANSKFIGIQSIALSSLMVAQAIPLVGEL [TT830DT]”: in experiment [3], the “IFN-γ expression in peptide specific central memory T-cells” value is listed as “increased expression”, the “IL-4 expression in peptide specific central memory T-cells” value is listed as “not IL-4” and the “TNF-α expression in peptide specific central memory T-cells” value is recorded as “increased expression”.

Turning to “ILSIYSTVASSLALAIkvsvrLIFLARSALILR [ABW2kAAT]”, the “memory T-cell recall response” value in experiment [1] (4 μM peptide) is reported as “positive”. For the substance “LIFLARSALILRkvsvrILSIYSTVASSLALAI [AATkABW2]”, the “memory T-cell recall response” value in experiment [1] (4 μM peptide) was “positive”. Same read-out and setting: for “NAELLVALENQHTIkvsvrLIFLARSALILR (NAELLVALENQHTIKVSVRLIFLARSALILR) [3120tkAAT]” the value was “positive”. “TLLYVLFEVPMGLPILMQYIKANSKFIGI [AdVpTT830]”: the “effect of insertion of a cathepsin cleavage site on activity of the AdV epitope” value in experiment [1] (human PBMC, 4 μM peptide) is listed as “eliminated activity of the AdV epitope”. On to “TLLYVLFEVkvsvr NNFTVSFWLRVPKVSASHLET (TLLYVLFEV[dK][dV][dS][dV][dR]NNFTVSFWLRVPKVSASHLET) [AdVkTT950]”, for which, in experiment [1] (4 μM peptide), the “response of individual peptides and of heterodimeric peptides lacking a cathepsin cleavage site, compared with the response to this peptide” value is reported as “weaker response”. Turning to “TLLYVLFEVkvsvrQSIALSSLMVAQ (TLLYVLFEV[dK][dV][dS][dV][dR]QSIALSSLMVAQ) [AdVkDTt]”, the “response of individual peptides and of heterodimeric peptides lacking a cathepsin cleavage site, compared with the response to this peptide” value in experiment [1] (4 μM peptide) was “weaker response”. As to “VSTYMLTNSELLSLINDkvsvrAGFYHILNNPKASL [VSTkAGF]”, in the experiment with human PBMC, the “memory T-cell response (IFN-γ Elispot spots, normalized to non-stimulated controls)” value is “highest memory T-cell response” and the “number of donors showing a recall” value is recorded as 5 donors. With “VWLYNQIALQLKNHAkvsvrAGFYHILNNPKASL [VWLkAGF]”, in the experiment with human PBMC, the “memory T-cell response (IFN-γ Elispot spots, normalized to non-stimulated controls)” value is “highest memory T-cell response” and the “number of donors showing a recall” value is listed as 5 donors.
